Measured values: ChEMBL document CHEMBL1201862, “PubChem BioAssay data set” (2004)
Each block holds one molecule with its values, some of them ahead of it. The source made the active and inactive calls.

How the values were obtained:
[1] = HEp-2 cell cytotoxicity, dose response, cytotoxicity control for RSV inhibitor project, HTS (AID 2410); type: functional; conditions: human respiratory syncytial virus
[2] = inhibitors of Bluetongue virus cytopathic effect, confirmation, arbovirus, BSR cells (AID 1250); type: functional;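 further: protection from viral cytopathic effect measured as cell viability by ATP luminescence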
[3] = target: T1, Sphingosine 1-phosphate receptor 4 (Homo sapiens, UniProt O95977); assay: Late stage fluorescence dose response cell-based screening assay for antagonists of the Sphingosine 1-Phosphate Receptor 4 (S1P4). [Related pubchem assays: 1524 (Confirmation screen (S1P4 antagonists).), 1510 (Primary screen (S1P4 antagonists).), 1853 (Summary AID (S1P4 antagonists).), 1692 (Dose response screen (S1P4 antagonists).)]; type: functional
T1 sequence (O95977 whole entry): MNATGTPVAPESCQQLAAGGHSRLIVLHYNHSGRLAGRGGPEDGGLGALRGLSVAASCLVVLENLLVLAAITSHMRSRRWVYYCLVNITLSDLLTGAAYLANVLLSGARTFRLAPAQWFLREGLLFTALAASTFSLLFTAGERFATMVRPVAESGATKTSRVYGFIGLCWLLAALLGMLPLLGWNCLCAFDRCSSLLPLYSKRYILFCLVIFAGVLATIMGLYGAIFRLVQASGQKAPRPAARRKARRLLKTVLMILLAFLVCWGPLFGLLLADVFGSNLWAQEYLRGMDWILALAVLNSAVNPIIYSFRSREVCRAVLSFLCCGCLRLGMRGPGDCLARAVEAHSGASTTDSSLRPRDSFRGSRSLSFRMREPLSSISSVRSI

[4] = target: T1, Sphingosine 1-phosphate receptor 4; assay: Fluorescence dose response cell-based high throughput screening assay for antagonists of the Sphingosine 1-Phosphate Receptor 4 (S1P4). [Related pubchem assays: 1524 (Confirmation in triplicates.), 1510 (Primary screen.)]; type: functional
[5] = target: Sphingosine 1-phosphate receptor 1 (Homo sapiens, UniProt P21453); type: functional;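 further: Tango beta-arrestin reporter U2OS cells stimulated with S1P near its EC80; inhibitor potency meaning antagonism of receptor activation by the natural agonist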
Sphingosine 1-phosphate receptor 1, sequence (P21453 whole entry): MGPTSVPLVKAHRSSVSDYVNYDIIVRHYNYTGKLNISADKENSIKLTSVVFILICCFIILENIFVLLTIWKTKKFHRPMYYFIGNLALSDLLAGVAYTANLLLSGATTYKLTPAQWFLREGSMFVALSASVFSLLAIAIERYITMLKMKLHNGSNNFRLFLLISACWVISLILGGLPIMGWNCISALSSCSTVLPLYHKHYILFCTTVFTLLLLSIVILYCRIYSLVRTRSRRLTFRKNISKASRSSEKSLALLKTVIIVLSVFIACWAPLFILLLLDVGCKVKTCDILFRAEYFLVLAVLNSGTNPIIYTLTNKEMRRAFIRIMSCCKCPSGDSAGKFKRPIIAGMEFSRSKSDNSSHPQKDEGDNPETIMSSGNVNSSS

INS1 = assay: beta cell apoptosis inhibitors, cytokine rescue, dose response, luminescence, retest (AID 449756); type: functional, cell-based; conditions: Rattus norvegicus;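 further: cell death triggered by IL-1 beta plus TNF-alpha plus IFN-gamma mixture; protective hits raise ATP signal compared with cytokine alone wells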
[6] = target: Luciferin 4-monooxygenase (Photinus pyralis, UniProt P08659); assay: Counter Screen for Luciferase-based Assay Positives. [Related pubchem assays: 620, 618, 411 ]
Luciferin 4-monooxygenase, sequence (P08659 whole entry): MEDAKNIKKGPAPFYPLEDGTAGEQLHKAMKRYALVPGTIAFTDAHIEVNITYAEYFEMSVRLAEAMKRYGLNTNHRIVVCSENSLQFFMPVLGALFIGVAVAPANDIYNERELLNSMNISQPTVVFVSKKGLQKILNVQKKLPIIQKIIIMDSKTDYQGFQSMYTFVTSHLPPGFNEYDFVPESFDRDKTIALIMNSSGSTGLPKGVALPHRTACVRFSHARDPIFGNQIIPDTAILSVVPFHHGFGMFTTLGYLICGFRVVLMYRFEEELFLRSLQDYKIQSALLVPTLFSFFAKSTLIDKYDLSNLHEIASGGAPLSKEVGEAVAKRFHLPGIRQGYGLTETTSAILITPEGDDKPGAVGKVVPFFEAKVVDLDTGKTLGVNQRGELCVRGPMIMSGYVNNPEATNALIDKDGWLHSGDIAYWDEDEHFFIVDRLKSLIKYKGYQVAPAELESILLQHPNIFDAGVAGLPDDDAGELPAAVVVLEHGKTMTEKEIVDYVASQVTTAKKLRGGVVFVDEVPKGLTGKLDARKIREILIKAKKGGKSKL

HT-1080 = assay: cytotoxicity in HT1080 fibrosarcoma cells, cell-based, fluorescence readout (AID 620); type: functional; conditions: Homo sapiens
Caspase-3 = target: T2, Caspase-3 (Homo sapiens, UniProt P42574); type: functional;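 further: Dose-response selectivity test against caspase-3 for candidate inhibitors of sentrin-specific proteases (SENPs)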
T2 sequence (P42574 whole entry): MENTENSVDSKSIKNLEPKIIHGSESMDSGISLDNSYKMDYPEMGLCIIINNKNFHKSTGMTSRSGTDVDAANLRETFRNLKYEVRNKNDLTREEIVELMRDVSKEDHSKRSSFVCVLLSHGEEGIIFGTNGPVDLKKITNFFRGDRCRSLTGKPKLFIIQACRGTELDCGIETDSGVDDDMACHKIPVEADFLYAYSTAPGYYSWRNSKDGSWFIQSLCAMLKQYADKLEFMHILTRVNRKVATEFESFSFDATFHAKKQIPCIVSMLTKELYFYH

[7] = target: T3, Sentrin-specific protease 7 (Homo sapiens, UniProt Q9BQF6); type: functional;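 further: Luminescence-based dose-response confirmation of ultra-high-throughput screening hits, measuring inhibition of SENP7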
T3 sequence (Q9BQF6 whole entry): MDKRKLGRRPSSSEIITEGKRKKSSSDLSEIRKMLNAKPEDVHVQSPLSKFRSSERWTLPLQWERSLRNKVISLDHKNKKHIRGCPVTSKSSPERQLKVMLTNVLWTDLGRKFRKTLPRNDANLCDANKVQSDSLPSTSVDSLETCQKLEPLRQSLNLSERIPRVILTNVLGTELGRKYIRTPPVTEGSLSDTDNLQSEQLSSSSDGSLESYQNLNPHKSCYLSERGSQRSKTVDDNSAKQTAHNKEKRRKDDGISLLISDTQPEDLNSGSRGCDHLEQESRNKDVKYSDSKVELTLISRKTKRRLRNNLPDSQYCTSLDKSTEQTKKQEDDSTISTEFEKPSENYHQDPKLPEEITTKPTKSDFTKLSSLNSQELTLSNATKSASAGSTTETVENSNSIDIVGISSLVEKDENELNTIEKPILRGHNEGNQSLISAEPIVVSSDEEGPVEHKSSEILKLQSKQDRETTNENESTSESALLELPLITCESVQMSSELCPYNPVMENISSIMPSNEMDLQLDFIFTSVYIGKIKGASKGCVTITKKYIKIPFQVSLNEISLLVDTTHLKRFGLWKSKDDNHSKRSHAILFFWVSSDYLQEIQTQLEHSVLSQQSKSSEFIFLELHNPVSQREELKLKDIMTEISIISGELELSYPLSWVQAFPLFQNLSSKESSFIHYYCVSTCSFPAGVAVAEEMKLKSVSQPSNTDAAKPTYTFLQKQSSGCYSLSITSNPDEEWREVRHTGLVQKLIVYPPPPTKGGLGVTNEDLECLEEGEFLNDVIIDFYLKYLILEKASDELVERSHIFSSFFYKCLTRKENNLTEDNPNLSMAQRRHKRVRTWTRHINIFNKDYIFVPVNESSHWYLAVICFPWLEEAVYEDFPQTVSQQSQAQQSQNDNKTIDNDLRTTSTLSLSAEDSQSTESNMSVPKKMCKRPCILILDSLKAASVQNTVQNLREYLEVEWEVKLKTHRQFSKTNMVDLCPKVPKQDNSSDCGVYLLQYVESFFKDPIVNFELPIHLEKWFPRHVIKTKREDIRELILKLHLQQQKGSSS

[8] = target: T4, Sentrin-specific protease 6 (Homo sapiens, UniProt Q9GZR1); type: functional;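 further: Luminescence-based dose-response confirmatory assay of SENP6 inhibition, following up an ultra-high-throughput screen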
T4 sequence (Q9GZR1 whole entry): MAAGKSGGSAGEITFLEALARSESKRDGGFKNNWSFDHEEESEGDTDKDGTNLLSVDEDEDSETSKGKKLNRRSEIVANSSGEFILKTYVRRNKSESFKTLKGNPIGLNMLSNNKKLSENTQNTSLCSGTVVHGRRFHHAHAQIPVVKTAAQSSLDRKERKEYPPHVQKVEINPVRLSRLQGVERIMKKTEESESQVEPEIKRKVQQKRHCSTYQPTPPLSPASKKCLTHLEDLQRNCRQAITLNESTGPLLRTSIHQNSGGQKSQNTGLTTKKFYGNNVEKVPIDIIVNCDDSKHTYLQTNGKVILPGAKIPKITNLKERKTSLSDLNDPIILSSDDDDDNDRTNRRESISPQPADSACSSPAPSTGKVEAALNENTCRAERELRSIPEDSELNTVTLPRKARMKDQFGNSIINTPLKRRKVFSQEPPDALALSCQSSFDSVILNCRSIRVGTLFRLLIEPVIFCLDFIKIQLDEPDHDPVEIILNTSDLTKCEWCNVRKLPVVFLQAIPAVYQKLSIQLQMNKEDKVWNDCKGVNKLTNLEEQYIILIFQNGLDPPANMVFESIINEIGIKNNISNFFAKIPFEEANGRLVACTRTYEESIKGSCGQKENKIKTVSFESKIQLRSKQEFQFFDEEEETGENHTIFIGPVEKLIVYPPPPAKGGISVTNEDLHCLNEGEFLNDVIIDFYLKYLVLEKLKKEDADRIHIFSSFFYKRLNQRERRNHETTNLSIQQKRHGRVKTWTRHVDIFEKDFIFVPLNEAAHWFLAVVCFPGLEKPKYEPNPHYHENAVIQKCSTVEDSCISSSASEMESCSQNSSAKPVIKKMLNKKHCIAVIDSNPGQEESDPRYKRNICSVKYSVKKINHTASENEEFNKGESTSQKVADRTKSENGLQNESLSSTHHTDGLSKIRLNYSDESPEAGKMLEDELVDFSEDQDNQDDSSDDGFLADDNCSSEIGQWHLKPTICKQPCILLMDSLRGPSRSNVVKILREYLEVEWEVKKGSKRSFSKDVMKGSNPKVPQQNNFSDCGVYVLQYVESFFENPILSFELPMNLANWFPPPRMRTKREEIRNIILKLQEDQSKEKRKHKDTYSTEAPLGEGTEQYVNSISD

[9] = target: T5, Sentrin-specific protease 8 (Homo sapiens, UniProt Q96LD8); type: functional;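 further: luminescence read-out of SENP8 inhibition, dose-response confirmation following an ultra-high-throughput screen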
T5 sequence (Q96LD8 whole entry): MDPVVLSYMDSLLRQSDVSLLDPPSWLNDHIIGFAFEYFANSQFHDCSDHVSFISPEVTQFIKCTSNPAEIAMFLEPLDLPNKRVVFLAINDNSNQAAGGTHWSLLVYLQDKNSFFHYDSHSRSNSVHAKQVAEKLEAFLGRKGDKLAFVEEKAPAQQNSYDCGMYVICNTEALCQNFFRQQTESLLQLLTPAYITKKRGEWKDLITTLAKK

[10] = target: T6, Oxysterols receptor LXR-beta (Homo sapiens, UniProt P55055); type: functional, cell-based;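 further: Cell-based luminescence dose-response assay of agonist activity at LXR, run as a confirmatory counterscreen to a daf-12 agonist screen; HEK293 cells with Gal4-LXR fusion and GAL4-driven luciferase reporter; agonist potency from rising luciferase signal of a Gal4-LXR reporter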
T6 sequence (P55055 whole entry): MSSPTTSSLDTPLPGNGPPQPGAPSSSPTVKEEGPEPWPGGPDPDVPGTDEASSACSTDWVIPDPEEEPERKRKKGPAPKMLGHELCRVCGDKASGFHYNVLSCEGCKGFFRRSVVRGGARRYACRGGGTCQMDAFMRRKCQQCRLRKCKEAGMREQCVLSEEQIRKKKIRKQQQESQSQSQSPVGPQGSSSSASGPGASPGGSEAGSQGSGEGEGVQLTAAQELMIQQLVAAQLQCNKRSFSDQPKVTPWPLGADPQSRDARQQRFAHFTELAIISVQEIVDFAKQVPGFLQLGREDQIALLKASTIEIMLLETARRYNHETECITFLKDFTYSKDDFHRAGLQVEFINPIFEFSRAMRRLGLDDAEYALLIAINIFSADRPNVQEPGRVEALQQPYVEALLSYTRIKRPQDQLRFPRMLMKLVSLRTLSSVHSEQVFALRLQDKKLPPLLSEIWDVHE

IC50 [2]: 45.6 µM (active)
Structure (SMILES): COc1ccc(-c2cc(-c3ccc(OC)c(OC)c3)[nH]n2)c(O)c1
CC50 [1]: 46.3 µM (active)

Structure (SMILES): CCOC(=O)C(=Cc1ccc(Br)cc1)C(=O)OCC
IC50 [3]: 0.887 µM (active) | IC50 [4]: 0.419 µM (active) | IC50 [5]: 9.77 µM (active) | AC50 (INS1): 25 µM (active)

Structure (SMILES): COc1cc([N+](=O)[O-])ccc1N/C=C/C(=O)c1cccs1
EC50 [6]: 4.17 µM (active) | EC50 (HT-1080): > 50 µM (not active) | IC50 (Caspase-3): 1.53 µM (active) | IC50 [7]: 0.863 µM (active) | IC50 [8]: 1.15 µM (active) | IC50 [9]: 2.62 µM (active) | EC50 [10]: > 67.5 µM (inactive) | EC50 (cells): > 67.5 µM (inactive)
